Source: paper PMC12566511, “The Evaluation of (1R,4R,7R,10R)-α,α′,α″,α‴-Tetramethyl-1,4,7,10-tetraazacyclododecane-1,4,7,10-tetraacetic Acid (DOTMA) as a Chelator for Zirconium-89” (Molecules, 2025)
Entries after “also recorded” stand apart in the source; their conditions may differ.

Tests used:
[1] = In vitro EDTA challenge study; type: physicochemical; settings: for % Intact of [^89Zr]Zr-Complex (n = 3): 37 °C, radio-ITLC
Description: The solutions (n = 3) were incubated at 37 °C for 7 days in a thermomixer. Samples were analyzed at 0, 1, 3, 5, and 7 days post administration to EDTA using radio-TLC, Varian ITLC-SA strips, 50 mM EDTA (pH 5) as the mobile phase, and gamma counting. All studies were performed in triplicate.

[2] = Partition coefficient (LogP), water/octanol partition method; type: physicochemical; settings: octanol/water (pH 5.5), room temperature, n = 5
Description: The partition coefficient (LogP) was determined by adding 5 μL of [^89Zr]Zr-DOTMA (~5 μCi; 0.19 MBq) to a mixture of 500 μL of octanol and 500 μL of water (pH 5.5). The resulting solutions (n = 5) were vigorously vortexed for 5 min at room temperature, then centrifuged for 5 min to ensure complete separation of layers. From each of the five sets, a 50 μL aliquot was removed from each phase into new tubes and counted separately in a gamma counter. Each organic phase was washed with water to remove any radioactivity remaining in the organic phase before gamma counting. The partition coefficient was calculated as a ratio of counts in the octanol fraction to counts in the water fraction. The LogP values were reported as an average of five measurements.

[3] = In vitro serum stability study; type: in vitro ADME, human; settings: for % Intact of [^89Zr]Zr-DOTMA (n = 3) Radio-ITLC / % Intact of [^89Zr]Zr-DOTMA (n = 3) Radio-SE-HPLC: human serum, 37 °C
Description: The in vitro serum stability was determined by adding 20 μL of [^89Zr]Zr-DOTMA (113–124 μCi, 4.2–4.6 MBq) to 500 μL of human serum. The solutions (n = 3) were incubated at 37 °C for 7 days and were analyzed daily for 1 week by radio-TLC using Varian ITLC-SA strips, 0.1 M EDTA (pH 5) as the mobile phase, and gamma counting. Samples were also analyzed at 1, 3, 5, and 7 days via size exclusion chromatography (SEC) using a Superdex 200 10/300 GL column (GE Healthcare Life Sciences, Piscataway, NJ, USA) and phosphate buffered saline (PBS) as an eluent with a flow rate of 0.5 mL/min. Fractions (0.5 mL per tube) were collected, and the activity in each fraction was measured in a gamma counter. The percent intact radiopharmaceutical was determined by […] in the chromatogram and multiplying by a factor of 100%.

[4] = In vitro metal competition study; type: physicochemical; settings: for % Intact of [^89Zr]Zr-Complex (n = 3): PBS pH 7.4, 37 °C, radio-ITLC
Description: To separate solutions of metal cations (iron(III) chloride, cobalt(II) chloride, zinc(II) chloride, copper(II) chloride, magnesium(II) chloride, gallium(III) nitrate, and gadolinium(III) chloride) (1.0 mM, 200 μL), [^89Zr]Zr-DOTMA complex (0.1 mM, 20 μL, 110−119 μCi, 4.1–4.4 MBq) in PBS (pH 7.4) was added. The resulting solutions (n = 3) were incubated at 37 °C for 7 days in a thermomixer. Dissociation of ^89Zr from [^89Zr]Zr-DOTMA complex was monitored by radio-TLC at 0, 1, 3, 5, and 7 days using radio-TLC, Varian ITLC-SA strips, 50 mM EDTA (pH 5) as the mobile phase, and gamma counting. All studies were performed in triplicate.

Structure (SMILES): CC(C(=O)[O-])N1CCN(C(C)C(=O)[O-])CCN(C(C)C(=O)[O-])CCN(C(C)C(=O)[O-])CC1.[89Zr+4] (stereo not shown) [[^89Zr]Zr-DOTMA]
- stability to excess EDTA challenge (in words) ([1]; 1000-fold excess EDTA, pH 5 or pH 7, seven-day time course): inert; also recorded: stable
- % Intact of [^89Zr]Zr-Complex (n = 3) ([1]; EDTA 100-fold, pH 5.0, 0 h): ≥99.99%
- % Intact of [^89Zr]Zr-Complex (n = 3) ([1]; EDTA 100-fold, pH 5.0, 1 d): ≥99.99%
- % Intact of [^89Zr]Zr-Complex (n = 3) ([1]; EDTA 100-fold, pH 5.0, 3 d): ≥99.99%
- % Intact of [^89Zr]Zr-Complex (n = 3) ([1]; EDTA 100-fold, pH 5.0, 5 d): ≥99.99%
- % Intact of [^89Zr]Zr-Complex (n = 3) ([1]; EDTA 100-fold, pH 5.0, 7 d): ≥99.99%
- % Intact of [^89Zr]Zr-Complex (n = 3) ([1]; EDTA 100-fold, pH 7.0, 0 h): ≥99.99%
- % Intact of [^89Zr]Zr-Complex (n = 3) ([1]; EDTA 100-fold, pH 7.0, 1 d): ≥99.99%
- % Intact of [^89Zr]Zr-Complex (n = 3) ([1]; EDTA 100-fold, pH 7.0, 3 d): ≥99.99%
- % Intact of [^89Zr]Zr-Complex (n = 3) ([1]; EDTA 100-fold, pH 7.0, 5 d): ≥99.99%
- % Intact of [^89Zr]Zr-Complex (n = 3) ([1]; EDTA 100-fold, pH 7.0, 7 d): ≥99.99%
- % Intact of [^89Zr]Zr-Complex (n = 3) ([1]; EDTA 500-fold, pH 5.0, 0 h): ≥99.99%
- % Intact of [^89Zr]Zr-Complex (n = 3) ([1]; EDTA 500-fold, pH 5.0, 1 d): ≥99.99%
- % Intact of [^89Zr]Zr-Complex (n = 3) ([1]; EDTA 500-fold, pH 5.0, 3 d): ≥99.99%
- % Intact of [^89Zr]Zr-Complex (n = 3) ([1]; EDTA 500-fold, pH 5.0, 5 d): ≥99.99%
- % Intact of [^89Zr]Zr-Complex (n = 3) ([1]; EDTA 500-fold, pH 5.0, 7 d): ≥99.99%
- % Intact of [^89Zr]Zr-Complex (n = 3) ([1]; EDTA 500-fold, pH 7.0, 0 h): ≥99.99%
- % Intact of [^89Zr]Zr-Complex (n = 3) ([1]; EDTA 500-fold, pH 7.0, 1 d): ≥99.99%
- % Intact of [^89Zr]Zr-Complex (n = 3) ([1]; EDTA 500-fold, pH 7.0, 3 d): ≥99.99%
- % Intact of [^89Zr]Zr-Complex (n = 3) ([1]; EDTA 500-fold, pH 7.0, 5 d): ≥99.99%
- % Intact of [^89Zr]Zr-Complex (n = 3) ([1]; EDTA 500-fold, pH 7.0, 7 d): ≥99.99%
- % Intact of [^89Zr]Zr-Complex (n = 3) ([1]; EDTA 1000-fold, pH 5.0, 0 h): ≥99.99%
- % Intact of [^89Zr]Zr-Complex (n = 3) ([1]; EDTA 1000-fold, pH 5.0, 1 d): ≥99.99%
- % Intact of [^89Zr]Zr-Complex (n = 3) ([1]; EDTA 1000-fold, pH 5.0, 3 d): ≥99.99%
- % Intact of [^89Zr]Zr-Complex (n = 3) ([1]; EDTA 1000-fold, pH 5.0, 5 d): ≥99.99%
- % Intact of [^89Zr]Zr-Complex (n = 3) ([1]; EDTA 1000-fold, pH 5.0, 7 d): ≥99.99%
- % Intact of [^89Zr]Zr-Complex (n = 3) ([1]; EDTA 1000-fold, pH 7.0, 0 h): ≥99.99%
- % Intact of [^89Zr]Zr-Complex (n = 3) ([1]; EDTA 1000-fold, pH 7.0, 1 d): ≥99.99%
- % Intact of [^89Zr]Zr-Complex (n = 3) ([1]; EDTA 1000-fold, pH 7.0, 3 d): ≥99.99%
- % Intact of [^89Zr]Zr-Complex (n = 3) ([1]; EDTA 1000-fold, pH 7.0, 5 d): ≥99.99%
- % Intact of [^89Zr]Zr-Complex (n = 3) ([1]; EDTA 1000-fold, pH 7.0, 7 d): ≥99.99%
- LogP [2]: −2.97± 0.02
- % Intact of [^89Zr]Zr-DOTMA (n = 3) Radio-ITLC ([3]; 0 h): ≥99.99%
- % Intact of [^89Zr]Zr-DOTMA (n = 3) Radio-SE-HPLC ([3]; 0 h): ≥99.99%
- % Intact of [^89Zr]Zr-DOTMA (n = 3) Radio-ITLC ([3]; 1 d): ≥99.99%
- % Intact of [^89Zr]Zr-DOTMA (n = 3) Radio-SE-HPLC ([3]; 1 d): ≥99.99%
- % Intact of [^89Zr]Zr-DOTMA (n = 3) Radio-ITLC ([3]; 3 d): ≥99.99%
- % Intact of [^89Zr]Zr-DOTMA (n = 3) Radio-SE-HPLC ([3]; 3 d): ≥99.99%
- % Intact of [^89Zr]Zr-DOTMA (n = 3) Radio-ITLC ([3]; 5 d): ≥99.99%
- % Intact of [^89Zr]Zr-DOTMA (n = 3) Radio-SE-HPLC ([3]; 5 d): ≥99.99%
- % Intact of [^89Zr]Zr-DOTMA (n = 3) Radio-ITLC ([3]; 7 d): ≥99.99%
- % Intact of [^89Zr]Zr-DOTMA (n = 3) Radio-SE-HPLC ([3]; 7 d): 99.9 ± 0.1%
- association of ^89Zr with serum proteins (in words) ([3]; incubation in human serum, seven-day time course): not associated with the serum proteins
- % Intact of [^89Zr]Zr-Complex (n = 3) ([4]; Co^2+, 0 h): ≥99.99%
- % Intact of [^89Zr]Zr-Complex (n = 3) ([4]; Co^2+, 1 d): ≥99.99%
- % Intact of [^89Zr]Zr-Complex (n = 3) ([4]; Co^2+, 3 d): ≥99.99%
- % Intact of [^89Zr]Zr-Complex (n = 3) ([4]; Co^2+, 5 d): ≥99.99%
- % Intact of [^89Zr]Zr-Complex (n = 3) ([4]; Co^2+, 7 d): ≥99.99%
- % Intact of [^89Zr]Zr-Complex (n = 3) ([4]; Cu^2+, 0 h): ≥99.99%
- % Intact of [^89Zr]Zr-Complex (n = 3) ([4]; Cu^2+, 1 d): ≥99.99%
- % Intact of [^89Zr]Zr-Complex (n = 3) ([4]; Cu^2+, 3 d): ≥99.99%
- % Intact of [^89Zr]Zr-Complex (n = 3) ([4]; Cu^2+, 5 d): ≥99.99%
- % Intact of [^89Zr]Zr-Complex (n = 3) ([4]; Cu^2+, 7 d): ≥99.99%
- % Intact of [^89Zr]Zr-Complex (n = 3) ([4]; Fe^3+, 0 h): ≥99.99%
- % Intact of [^89Zr]Zr-Complex (n = 3) ([4]; Fe^3+, 1 d): ≥99.99%
- % Intact of [^89Zr]Zr-Complex (n = 3) ([4]; Fe^3+, 3 d): ≥99.99%
- % Intact of [^89Zr]Zr-Complex (n = 3) ([4]; Fe^3+, 5 d): ≥99.99%
- % Intact of [^89Zr]Zr-Complex (n = 3) ([4]; Fe^3+, 7 d): ≥99.99%
- demetallation when challenged with high concentrations of metal ions (in words) ([4]; Fe^3+, Co^2+, Zn^2+, Cu^2+, Mg^2+, Ga^3+ or Gd^3+ ions, seven-day time course): inert; also recorded: no demetallation
- % Intact of [^89Zr]Zr-Complex (n = 3) ([4]; Ga^3+, 0 h): ≥99.99%
- % Intact of [^89Zr]Zr-Complex (n = 3) ([4]; Ga^3+, 1 d): ≥99.99%
- % Intact of [^89Zr]Zr-Complex (n = 3) ([4]; Ga^3+, 3 d): ≥99.99%
- % Intact of [^89Zr]Zr-Complex (n = 3) ([4]; Ga^3+, 5 d): ≥99.99%
- % Intact of [^89Zr]Zr-Complex (n = 3) ([4]; Ga^3+, 7 d): ≥99.99%
- % Intact of [^89Zr]Zr-Complex (n = 3) ([4]; Gd^3+, 0 h): ≥99.99%
- % Intact of [^89Zr]Zr-Complex (n = 3) ([4]; Gd^3+, 1 d): ≥99.99%
- % Intact of [^89Zr]Zr-Complex (n = 3) ([4]; Gd^3+, 3 d): ≥99.99%
- % Intact of [^89Zr]Zr-Complex (n = 3) ([4]; Gd^3+, 5 d): ≥99.99%
- % Intact of [^89Zr]Zr-Complex (n = 3) ([4]; Gd^3+, 7 d): ≥99.99%
- % Intact of [^89Zr]Zr-Complex (n = 3) ([4]; Mg^2+, 0 h): ≥99.99%
- % Intact of [^89Zr]Zr-Complex (n = 3) ([4]; Mg^2+, 1 d): ≥99.99%
- % Intact of [^89Zr]Zr-Complex (n = 3) ([4]; Mg^2+, 3 d): ≥99.99%
- % Intact of [^89Zr]Zr-Complex (n = 3) ([4]; Mg^2+, 5 d): ≥99.99%
- % Intact of [^89Zr]Zr-Complex (n = 3) ([4]; Mg^2+, 7 d): ≥99.99%
- % Intact of [^89Zr]Zr-Complex (n = 3) ([4]; Zn^2+, 0 h): ≥99.99%
- % Intact of [^89Zr]Zr-Complex (n = 3) ([4]; Zn^2+, 1 d): ≥99.99%
- % Intact of [^89Zr]Zr-Complex (n = 3) ([4]; Zn^2+, 3 d): ≥99.99%
- % Intact of [^89Zr]Zr-Complex (n = 3) ([4]; Zn^2+, 5 d): ≥99.99%
- % Intact of [^89Zr]Zr-Complex (n = 3) ([4]; Zn^2+, 7 d): ≥99.99%
